Laboratory results: patent US9642831B2, “Substituted chromanes and method of use” (AbbVie S.á.r.l., priority 2014, dated 2017)

Target: F508delCFTR (Homo sapiens, UniProt P13569, DEL508-508)
Assay: Cell Surface Expression-Horse Radish Peroxidase (CSE-HRP) assay
Format: cell-based
Design: expressed in transfected cells; host or cells: CFBE41o- human lung derived epithelial cell line, doxycycline-inducible
Settings: CFBE4lo-F508delCFTR-HRP cells; for EC50: 18-24 hours at 33° C., 8-point curve, highest concentration 20 μM, luminescence readout; for Emax: maximum % activity at any tested concentration, normalized to on-plate positive control (3 μM Example 1)
From the text: Cell Surface Expression-Horse Radish Peroxidase (CSE-HRP) Assay:
A cellular assay for measuring the F508delCFTR cell surface expression after correction with test compounds was developed in human lung derived epithelial cell line (CFBE4lo-) (Veit G et al, (2012) Mol Biol Cell. 23(21): 4188-4202). This was achieved by expressing the F508delCFTR mutation along with a horseradish peroxidase (HRP) in the fourth exofacial loop and then measuring the HRP activity using luminescence readout from these cells, CFBE4lo-F508delCFTR-HRP, that were incubated overnight with the test corrector compounds. Briefly, for this primary assay, the CFBE4lo-F508delCFTR-HRP cells were plated in 384-well plates (Greiner Bio-one; Cat 781080) at 4,000 cells/well along with 0.5 μg/mL doxycycline to induce the F508delCFTR-HRP expression and further incubated at 37° C., 5% CO2 for 72 hours. The test compounds were then added at the required concentrations and further incubated for 18-24 hours at 33° C. The highest concentration tested was 20 μM with an 8-point concentration response curve using a 3-fold dilution. Three replicate plates were run to determine one EC50. All plates contained negative controls (dimethyl sulfoxide, DMSO) and positive controls (3 μM of 3-[(2R,4R)-4-({[1-(2,2-difluoro-1,3-benzodioxol-5-yl)cyclopropyl]carbonyl}amino)-7-methoxy-3,4-dihydro-2H-chromen-2-yl]benzoic acid) as well as on-plate concentration response of the positive control. Post incubation, the plates were washed 5× times with Dulbecco's phosphate buffered saline (DPBS), followed by the addition of the HRP substrate, luminol (50 μL), and measuring the HRP activity using luminescence readout on EnVision® Multilabel Plate Reader (Perkin Elmer; product number 2104-0010). The raw counts from the experiment are analyzed using Accelrys® Assay Explorer v3.3.
Z′ greater than 0.5 was used as passing quality control criteria for the plates.
The Z′ is defined as: 1−[3*SDPositive Control+3*SDNegative Control/Absolute(MeanPositive Control−MeanNegative Control)] wherein “SD” is standard deviation.
The % activity measured at each of the 8 test concentrations of the test compound was normalized to the on-plate positive control using the following formula: % activity=[(test compound response−DMSO response)/(positive control response−DMSO response)]*100
The maximum % activity achieved for the test compound at any tested concentration is presented in Table 1 along with the EC50 calculated using the following general sigmoidal curve with variable Hill slope equation (described as Model 42 in the Accelrys® Assay Explorer v3.3 software): y=(a−d)/(1+(x/c)^b)+d
General sigmoidal curve with concentration, response, top, bottom, EC50 and Hill slope.
This model describes a sigmoidal curve with an adjustable baseline, a. The equation can be used to fit curves where response is either increasing or decreasing with respect to the independent variable, “x”.
“x” is a concentration of drug under test.
“a” is the maximum response, and “d” is the minimum response
“c” is the inflection point (EC50) for the curve. That is, “y” is halfway between the lower and upper asymptotes when x=c.
“b” is the slope-factor or Hill coefficient. The sign of b is positive when the response increases with increasing dose and is negative when the response decreases with increasing dose (inhibition).

Chain of F508delCFTR (P13569 with tags, fused parts or gaps DEL508-508): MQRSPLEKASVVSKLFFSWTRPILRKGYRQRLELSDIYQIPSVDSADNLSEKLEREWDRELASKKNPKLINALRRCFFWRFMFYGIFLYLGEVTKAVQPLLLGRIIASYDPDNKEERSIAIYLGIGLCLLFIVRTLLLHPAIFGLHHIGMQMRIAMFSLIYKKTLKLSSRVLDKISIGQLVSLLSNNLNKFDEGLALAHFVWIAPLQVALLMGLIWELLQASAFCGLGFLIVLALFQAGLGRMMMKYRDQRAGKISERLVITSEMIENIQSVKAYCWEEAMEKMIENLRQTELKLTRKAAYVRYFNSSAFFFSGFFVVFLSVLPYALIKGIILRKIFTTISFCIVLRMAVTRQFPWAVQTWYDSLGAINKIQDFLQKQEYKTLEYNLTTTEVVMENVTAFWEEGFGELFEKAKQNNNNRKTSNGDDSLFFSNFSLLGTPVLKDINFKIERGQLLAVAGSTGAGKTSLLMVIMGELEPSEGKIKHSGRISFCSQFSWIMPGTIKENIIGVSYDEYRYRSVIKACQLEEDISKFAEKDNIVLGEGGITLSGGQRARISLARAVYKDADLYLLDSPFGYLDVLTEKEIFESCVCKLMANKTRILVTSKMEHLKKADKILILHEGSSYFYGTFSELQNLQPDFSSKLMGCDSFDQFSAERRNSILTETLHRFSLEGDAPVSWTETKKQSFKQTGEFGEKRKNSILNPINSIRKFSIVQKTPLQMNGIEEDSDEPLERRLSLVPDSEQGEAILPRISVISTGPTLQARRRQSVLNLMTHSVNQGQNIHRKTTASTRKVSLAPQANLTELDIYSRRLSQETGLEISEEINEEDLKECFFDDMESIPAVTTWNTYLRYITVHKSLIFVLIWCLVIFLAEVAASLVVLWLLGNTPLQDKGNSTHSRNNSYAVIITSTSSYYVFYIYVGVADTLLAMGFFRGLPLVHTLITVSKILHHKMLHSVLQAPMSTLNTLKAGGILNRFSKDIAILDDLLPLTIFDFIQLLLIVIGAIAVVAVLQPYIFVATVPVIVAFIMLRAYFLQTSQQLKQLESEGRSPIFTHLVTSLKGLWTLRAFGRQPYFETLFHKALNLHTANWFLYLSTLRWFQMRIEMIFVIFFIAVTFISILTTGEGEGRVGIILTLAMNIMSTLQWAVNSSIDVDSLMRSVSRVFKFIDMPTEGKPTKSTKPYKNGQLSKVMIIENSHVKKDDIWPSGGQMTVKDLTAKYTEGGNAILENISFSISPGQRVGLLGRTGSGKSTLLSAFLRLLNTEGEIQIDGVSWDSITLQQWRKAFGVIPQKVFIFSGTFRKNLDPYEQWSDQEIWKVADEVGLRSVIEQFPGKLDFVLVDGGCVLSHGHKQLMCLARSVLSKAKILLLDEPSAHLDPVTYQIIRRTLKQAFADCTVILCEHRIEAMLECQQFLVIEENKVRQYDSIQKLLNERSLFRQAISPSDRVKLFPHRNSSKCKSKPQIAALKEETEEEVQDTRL

| EC50 [µM] | Emax [%] | Structure (SMILES) |
| --- | --- | --- |
| 2 | 65 | CCCN(CCO)C(=O)[C@H]1C[C@@H](NC(=O)C2(c3ccc4c(c3)OC(F)(F)O4)CC2)c2ccc(OC)cc2O1 (racemic) [Example 166, rac-(2R,4R)-4-({[1-(2,2-difluoro-1,3-benzodioxol-5-yl)cyclopropyl]carbonyl}amino)-N-(2-hydroxyethyl)-7-methoxy-N-propyl-3,4-dihydro-2H-chromene-2-carboxamide] |
| 1.08 | 66 | COc1ccc2c(c1)O[C@@H](C(=O)N(CCO)Cc1ccccc1)C[C@H]2NC(=O)C1(c2ccc3c(c2)OC(F)(F)O3)CC1 (racemic) [Example 167, rac-(2R,4R)—N-benzyl-4-({[1-(2,2-difluoro-1,3-benzodioxol-5-yl)cyclopropyl]carbonyl}amino)-N-(2-hydroxyethyl)-7-methoxy-3,4-dihydro-2H-chromene-2-carboxamide] |
| 1.16 | 67 | COc1ccc2c(c1)O[C@@H](C(=O)N(C)CC(O)c1ccccc1)C[C@H]2NC(=O)C1(c2ccc3c(c2)OC(F)(F)O3)CC1 (mixture of isomers) [Example 168, rac-(2R,4R)-4-({[1-(2,2-difluoro-1,3-benzodioxol-5-yl)cyclopropyl]carbonyl}amino)-N-(2-hydroxy-2-phenylethyl)-7-methoxy-N-methyl-3,4-dihydro-2H-chromene-2-carboxamide] |
| 4.9 | 38 | COc1ccc2c(c1)O[C@@H](C(=O)N1CCN(CCO)CC1)C[C@H]2NC(=O)C1(c2ccc3c(c2)OC(F)(F)O3)CC1 (racemic) [Example 169, rac-1-(2,2-difluoro-1,3-benzodioxol-5-yl)-N-[(2R,4R)-2-{[4-(2-hydroxyethyl)piperazin-1-yl]carbonyl}-7-methoxy-3,4-dihydro-2H-chromen-4-yl]cyclopropanecarboxamide] |
| 1.55 | 65 | COc1ccc2c(c1)O[C@@H](C(=O)NC(C)(C)CO)C[C@H]2NC(=O)C1(c2ccc3c(c2)OC(F)(F)O3)CC1 (racemic) [Example 170, rac-(2R,4R)-4-({[1-(2,2-difluoro-1,3-benzodioxol-5-yl)cyclopropyl]carbonyl}amino)-N-(1-hydroxy-2-methylpropan-2-yl)-7-methoxy-3,4-dihydro-2H-chromene-2-carboxamide] |
| 2.29 | 40 | COc1ccc2c(c1)O[C@@H](C(=O)NC(CO)c1ccccc1)C[C@H]2NC(=O)C1(c2ccc3c(c2)OC(F)(F)O3)CC1 (mixture of isomers) [Example 171, rac-(2R,4R)-4-({[1-(2,2-difluoro-1,3-benzodioxol-5-yl)cyclopropyl]carbonyl}amino)-N-(2-hydroxy-1-phenylethyl)-7-methoxy-3,4-dihydro-2H-chromene-2-carboxamide] |
| 4.08 | 66 | COc1ccc2c(c1)O[C@@H](C(=O)NC1CCS(=O)(=O)CC1)C[C@H]2NC(=O)C1(c2ccc3c(c2)OC(F)(F)O3)CC1 (racemic) [Example 172, rac-(2R,4R)-4-({[1-(2,2-difluoro-1,3-benzodioxol-5-yl)cyclopropyl]carbonyl}amino)-N-(1,1-dioxidotetrahydro-2H-thiopyran-4-yl)-7-methoxy-3,4-dihydro-2H-chromene-2-carboxamide] |
| 2.15 | 27 | COc1ccc2c(c1)O[C@@H](C(=O)NC1(C(F)(F)F)COC1)C[C@H]2NC(=O)C1(c2ccc3c(c2)OC(F)(F)O3)CC1 (racemic) [Example 173, rac-(2R,4R)-4-({[1-(2,2-difluoro-1,3-benzodioxol-5-yl)cyclopropyl]carbonyl}amino)-7-methoxy-N-[3-(trifluoromethyl)oxetan-3-yl]-3,4-dihydro-2H-chromene-2-carboxamide] |
| 1.73 | 55 | COc1ccc2c(c1)O[C@@H](C(=O)N1CCC(F)(F)CC1)C[C@H]2NC(=O)C1(c2ccc3c(c2)OC(F)(F)O3)CC1 (racemic) [Example 174, rac-1-(2,2-difluoro-1,3-benzodioxol-5-yl)-N-{(2R,4R)-2-[(4,4-difluoropiperidin-1-yl)carbonyl]-7-methoxy-3,4-dihydro-2H-chromen-4-yl}cyclopropanecarboxamide] |
| 3.2 | 54 | COc1ccc2c(c1)O[C@@H](C(=O)N1CCCOCC1)C[C@H]2NC(=O)C1(c2ccc3c(c2)OC(F)(F)O3)CC1 (racemic) [Example 175, rac-1-(2,2-difluoro-1,3-benzodioxol-5-yl)-N-[(2R,4R)-7-methoxy-2-(1,4-oxazepan-4-ylcarbonyl)-3,4-dihydro-2H-chromen-4-yl]cyclopropanecarboxamide] |
| 9.63 | 30 | COc1ccc2c(c1)O[C@@H](C(=O)N(C)C1COC1)C[C@H]2NC(=O)C1(c2ccc3c(c2)OC(F)(F)O3)CC1 (racemic) [Example 176, rac-(2R,4R)-4-({[1-(2,2-difluoro-1,3-benzodioxol-5-yl)cyclopropyl]carbonyl}amino)-7-methoxy-N-methyl-N-(oxetan-3-yl)-3,4-dihydro-2H-chromene-2-carboxamide] |
| 2.91 | 56 | COc1ccc2c(c1)O[C@@H](C(=O)N1CCOCC1)C[C@H]2NC(=O)C1(c2ccc3c(c2)OC(F)(F)O3)CC1 (racemic) [Example 177, rac-1-(2,2-difluoro-1,3-benzodioxol-5-yl)-N-[(2R,4R)-7-methoxy-2-(morpholin-4-ylcarbonyl)-3,4-dihydro-2H-chromen-4-yl]cyclopropanecarboxamide] |
| 0.74 | 64 | COc1ccc2c(c1)O[C@@H](C(=O)NC(CO)c1ccccc1OC)C[C@H]2NC(=O)C1(c2ccc3c(c2)OC(F)(F)O3)CC1 (mixture of isomers) [Example 178, rac-(2R,4R)-4-({[1-(2,2-difluoro-1,3-benzodioxol-5-yl)cyclopropyl]carbonyl}amino)-N-[2-hydroxy-1-(2-methoxyphenyl)ethyl]-7-methoxy-3,4-dihydro-2H-chromene-2-carboxamide] |
| 0.8 | 69 | COc1ccc2c(c1)O[C@@H](C(=O)NCCc1cccc(O)c1)C[C@H]2NC(=O)C1(c2ccc3c(c2)OC(F)(F)O3)CC1 (racemic) [Example 179, rac-(2R,4R)-4-({[1-(2,2-difluoro-1,3-benzodioxol-5-yl)cyclopropyl]carbonyl}amino)-N-[2-(3-hydroxyphenyl)ethyl]-7-methoxy-3,4-dihydro-2H-chromene-2-carboxamide] |
| 5.93 | 59 | COc1ccc2c(c1)O[C@@H](C(=O)NC(CO)CO)C[C@H]2NC(=O)C1(c2ccc3c(c2)OC(F)(F)O3)CC1 (racemic) [Example 180, rac-(2R,4R)-4-({[1-(2,2-difluoro-1,3-benzodioxol-5-yl)cyclopropyl]carbonyl}amino)-N-(1,3-dihydroxypropan-2-yl)-7-methoxy-3,4-dihydro-2H-chromene-2-carboxamide] |
| 1.59 | 57 | COc1ccc2c(c1)O[C@@H](C(=O)NC1c3ccccc3CC1O)C[C@H]2NC(=O)C1(c2ccc3c(c2)OC(F)(F)O3)CC1 (mixture of isomers) [Example 181, rac-(2R,4R)-4-({[1-(2,2-difluoro-1,3-benzodioxol-5-yl)cyclopropyl]carbonyl}amino)-N-(2-hydroxy-2,3-dihydro-1H-inden-1-yl)-7-methoxy-3,4-dihydro-2H-chromene-2-carboxamide] |
| 0.8 | 46 | COc1ccc2c(c1)O[C@@H](C(=O)Nc1ccccc1O)C[C@@H]2NC(=O)C1(c2ccc3c(c2)OC(F)(F)O3)CC1 (racemic) [Example 182, rac-(2R,4S)-4-({[1-(2,2-difluoro-1,3-benzodioxol-5-yl)cyclopropyl]carbonyl}amino)-N-(2-hydroxyphenyl)-7-methoxy-3,4-dihydro-2H-chromene-2-carboxamide] |
